Assay results published in US20210147498A1, “USE OF GRAM-NEGATIVE LYSIN-ANTIMICROBIAL PEPTIDE (AMP) POLYPEPTIDE CONSTRUCTS IN PULMONARY SURFACTANT AND BIOFILMS” (priority 2018, published 2021).
Read-outs that look alike come from different tables or passages of the source.

Tested on: carbapenem-resistant P. aeruginosa strains
Experiment: microbe, parasite or virus in culture
Assay type: cell-based, Pseudomonas aeruginosa
Details: for MIC: Pseudomonas aeruginosa; for MIC Combination / MIC Alone: vs. WC-452
Experimental: Such resensitization may be determined by combining the present lysins or lysin-AMP polypeptide constructs with an antibiotic in a checkerboard assay as described herein. Antibiotic-resistant bacteria, such as carbapenem-resistant P. aeruginosa, are added to the lysin or lysin-AMP polypeptide construct combination. […] See Clinical and Laboratory Standards Institute (CLSI), CLSI. […] M100 Performance Standards for Antimicrobial Susceptibility Testing; 29th Edition. Clinical and Laboratory Standards Institute, Wayne, Pa., which is herein incorporated by reference in its entirety.
Up to seven carbapenem-resistant isolates were assessed. […] See Clinical and Laboratory Standards Institute (CLSI), CLSI. […] M100 Performance Standards for Antimicrobial Susceptibility Testing; 29th Edition. Clinical and Laboratory Standards Institute, Wayne, Pa.

C[C@@H](O)[C@H]1C(=O)N2C(C(=O)O)=C(SCCN=CN)C[C@H]12 [Imipenem, imipenem]
MIC (GN121, read-out: MIC (μg/mL) Alone, isolate PA20, checkerboard Imipenem + GN121): 16 µg/mL
MIC (GN121, read-out: MIC (μg/mL) Alone, isolate PA21, checkerboard Imipenem + GN121): 32 µg/mL
MIC (GN121, read-out: MIC (μg/mL) Alone, isolate PA23, checkerboard Imipenem + GN121): 16 µg/mL
MIC (GN123, read-out: MIC (μg/mL) Alone, isolate PA19, checkerboard IMIPENEM + GN123): 32 µg/mL
MIC (GN123, read-out: MIC (μg/mL) Alone, isolate PA20, checkerboard IMIPENEM + GN123): 16 µg/mL
MIC (GN123, read-out: MIC (μg/mL) Alone, isolate PA21, checkerboard IMIPENEM + GN123): 32 µg/mL
MIC (GN123, read-out: MIC (μg/mL) Alone, isolate PA22, checkerboard IMIPENEM + GN123): 16 µg/mL
MIC (GN123, read-out: MIC (μg/mL) Alone, isolate PA23, checkerboard IMIPENEM + GN123): 8 µg/mL
MIC (GN123, read-out: MIC (μg/mL) Alone, isolate PA24, checkerboard IMIPENEM + GN123): 32 µg/mL
MIC (GN123, read-out: MIC (μg/mL) Alone, isolate WC-452, checkerboard IMIPENEM + GN123): 16 µg/mL
susceptibility category of the isolate, carbapenem Alone (isolate PA19): (R) ((R) = resistant)
MIC (μg/mL) Combination (isolate PA19, IMIPENEM combined with GN123): 0.5 µg/mL
MIC (μg/mL) Combination (isolate PA19, Imipenem combined with GN121): 1 µg/mL
susceptibility category of the isolate, carbapenem in Combination (isolate PA19, combined with GN121): (S) ((S) = sensitive)
susceptibility category of the isolate, carbapenem in Combination (isolate PA19, combined with GN123): (S) ((S) = sensitive)
susceptibility category of the isolate, carbapenem Alone (isolate PA20): (R) ((R) = resistant)
MIC (μg/mL) Combination (isolate PA20, IMIPENEM combined with GN123): 1 µg/mL
MIC (μg/mL) Combination (isolate PA20, Imipenem combined with GN121): 0.5 µg/mL
susceptibility category of the isolate, carbapenem in Combination (isolate PA20, combined with GN121): (S) ((S) = sensitive)
susceptibility category of the isolate, carbapenem in Combination (isolate PA20, combined with GN123): (S) ((S) = sensitive)
susceptibility category of the isolate, carbapenem Alone (isolate PA21): (R) ((R) = resistant)
MIC (μg/mL) Combination (isolate PA21, IMIPENEM combined with GN123): 0.5 µg/mL
MIC (μg/mL) Combination (isolate PA21, Imipenem combined with GN121): 1 µg/mL
susceptibility category of the isolate, carbapenem in Combination (isolate PA21, combined with GN121): (S) ((S) = sensitive)
susceptibility category of the isolate, carbapenem in Combination (isolate PA21, combined with GN123): (S) ((S) = sensitive)
susceptibility category of the isolate, carbapenem Alone (isolate PA22): (R) ((R) = resistant)
MIC (μg/mL) Combination (isolate PA22, IMIPENEM combined with GN123): 2 µg/mL
MIC (μg/mL) Combination (isolate PA22, Imipenem combined with GN121): 2 µg/mL
susceptibility category of the isolate, carbapenem in Combination (isolate PA22, combined with GN121): (S) ((S) = sensitive)
susceptibility category of the isolate, carbapenem in Combination (isolate PA22, combined with GN123): (S) ((S) = sensitive)
susceptibility category of the isolate, carbapenem Alone (isolate PA23): (R) ((R) = resistant)
MIC (μg/mL) Combination (isolate PA23, IMIPENEM combined with GN123): 0.25 µg/mL
MIC (μg/mL) Combination (isolate PA23, Imipenem combined with GN121): 0.125 µg/mL
susceptibility category of the isolate, carbapenem in Combination (isolate PA23, combined with GN121): (S) ((S) = sensitive)
susceptibility category of the isolate, carbapenem in Combination (isolate PA23, combined with GN123): (S) ((S) = sensitive)
susceptibility category of the isolate, carbapenem Alone (isolate PA24): (R) ((R) = resistant)
MIC (μg/mL) Combination (isolate PA24, IMIPENEM combined with GN123): 2 µg/mL
MIC (μg/mL) Combination (isolate PA24, Imipenem combined with GN121): 1 µg/mL
susceptibility category of the isolate, carbapenem in Combination (isolate PA24, combined with GN121): (S) ((S) = sensitive)
susceptibility category of the isolate, carbapenem in Combination (isolate PA24, combined with GN123): (S) ((S) = sensitive)
susceptibility category of the isolate, carbapenem Alone (isolate WC-452): (R) ((R) = resistant)
MIC (μg/mL) Combination (isolate WC-452, IMIPENEM combined with GN123): 1 µg/mL
susceptibility category of the isolate, carbapenem in Combination (isolate WC-452, combined with GN123): (S) ((S) = sensitive)
susceptibility category of the isolate, carbapenem in Combination (isolate WC-452, combined with GN351): (S) ((S) = sensitive)
susceptibility category of the isolate, carbapenem in Combination (isolate WC-452, combined with GN370): (S) ((S) = sensitive)
susceptibility category of the isolate, carbapenem in Combination (isolate WC-452, combined with GN428): (S) ((S) = sensitive)
MIC Combination (IPM combined with GN351): 0.5 µg/mL
MIC Combination (IPM combined with GN370): 0.5 µg/mL
MIC Combination (IPM combined with GN428): 1 µg/mL
MIC Alone (checkerboard IPM + GN351): 16 µg/mL
MIC Alone (checkerboard IPM + GN370): 16 µg/mL
MIC Alone (checkerboard IPM + GN428): 16 µg/mL
